Source: patent publication EP0745083B1, “2-HETEROARYL-5,11-DIHYDRO-6H-DIPYRIDO [3,2-b:2',3'-e][1,4]DIAZEPINES AND THEIR USE IN THE PREVENTION OR TREATMENT OF HIV INFECTION” (BOEHRINGER INGELHEIM PHARMACEUTICALS INC., priority 1994, dated 1995)

Tests used:
Type in all cases: biochemical, Human Immunodeficiency Virus (HIV-1)
[1] = biological target: T1, HIV-1 RT wild type (WT) enzyme (Human immunodeficiency virus type 1 group M subtype B, UniProt P03367); assay: Reverse Transcriptase (RT) Assay, wild type enzyme (RNA-dependent DNA polymerase activity); details: 1 µM compound; for inhibition at 1 µM: read-out: Reverse Transciptase Assay % inhibition (1 µM) WT
T1 construct: Reverse transcriptase enzyme from the LAV strain of Human Immunodeficiency Virus (HIV-1) (1) was isolated from the bacterial strain JM109; made in house; host or cells: E. coli JM109 (clone pBRTprt1+ in vector pIBI21, lac promoter)
From the text: Utilizing the Reverse Transcriptase (RT) Assay described below, compounds can be tested for their ability to inhibit the RNA-dependent DNA polymerase activity of HIV-1 RT. Certain specific compounds described in the Examples which appear below, were so tested.
(§1) Among the enzymes for which Human Immunodeficiency Virus (HIV-1) encodes is a reverse transcriptase (1), so-named because it transcribes a DNA copy from an RNA template. This activity can be quantitatively measured in a cell-free enzyme assay, which has been previously described (2), and is based upon the observation that reverse transcriptase is able to use a synthetic template [poly r(C) primed with oligo d(G)] to transcribe a radio-labelled, acid-precipitable DNA strand utilizing ^3H-dGTP as a substrate. The assay described below utilizes the wild type (WT) enzyme, which is the predominant form of the enzyme observed in patients infected with HIV-1. Utilization of mutant RT eraymes (Y181C and Y181L, prepared by site-directed mutagenesis in which the tyrosine residue at codon 181 has been replaced by a cysteine or a leucine residue, respectively) and analogous assay conditions allows compounds to be evaluated for their effectiveness at inhibiting these mutant enzymes.
Reverse transcriptase enzyme from the LAV strain of Human Immunodeficiency Virus (HIV-1) (1) was isolated from the bacterial strain JM109 (3) expressing the DNA clone pBRTprt1+ (2) which is under the control of the lac promotor in the expression vector pIBI21 (4). An overnight culture grown in 2XYT medium (37°C, 225 rpm) (5) supplemented with 100 µg/mL ampicillin for positive selection is inoculated at a 1:40 dilution into M9 medium supplemented with 10µg/mL thiamine, 0.5% casamino acids, and 50 µg/mL ampicillin (5). The culture is incubated (37°C, 225 rpm) until it reaches an OD540 of 0.3-0.4. At that time the repressor inhibitor IPTG (isopropyl β-D-thiogalactopyranoside) is added to 0.5mM, and the mixture is incubated for 2 additional hours. Bacteria are pelleted, resuspended in a 50mM Tris, 0.6mM EDTA, 0.375M NaCl buffer and digested by the addition of lysozyme (1mg/mL) for 30 minutes on ice. The cells are lysed by the addition of 0.2% NP-40 and brought to 1M NaCl.
After removal of the insoluble debris by centrifugation, the protein is precipitated by the addition of 3 volumes of saturated aqueous ammonium sulfate. The enzyme is pelleted, resuspended in RT buffer (50mM Tris pH 7.5, 1mM EDTA, 5mM DTT, 0.1% NP-40, 0.1M NaCI, and 50% glycerol), and stored at -70°C for further use.
The 2X concentrated stock reaction mixture is aliquoted and stored at -20°C. The mixture is stable and thawed for use in each assay. This enzyme assay has been adapted to a 96 well microtiter plate system, and has been previously described (6). Tris buffer (50 mM, pH 7.4), vehicle (solvent diluted to match the compound dilution), or compounds in vehicle are dispensed into 96-well microtiter plates (10µL/well; 3 wells/ compound). The HIV-1 RT enzyme is thawed, diluted in 50mM Tris pH 7.4 so that fifteen µL of diluted enzyme contain 0.001 Unit (one unit is that amount of enzyme to transform 1 micromole of substrate per minute at 25°C), and fifteen µL are dispensed per well. Twenty µL of 0.12-0.5M EDTA are added to the first three wells of the microtiter plate. EDTA chelates the Mg^++ present and prevents reverse transcription. This group serves as background polymerization which is subtracted from all other groups. Twenty-five ul of the 2X reaction mixture are added to all wells and the assay is allowed to incubate at room temperature for 60 minutes. The assay is terminated by precipitating the DNA in each well with 50µL of 10% trichloracetic acid (TCA) (10% w/v) in sodium pyrophosphate (1% w/v). The microtiter plate is incubated for 15 minutes at 4°C and the precipitate is fixed onto #30 glass fiber paper (Schleicher & Schuell) using a Skatron semi-automatic harvester. […]

HIV-1 RT Y181C = biological target: T2, HIV-1 RT Y181C (Human immunodeficiency virus type 1 group M subtype B, UniProt P03367, Y780C); assay: Reverse Transcriptase (RT) Assay, Y181C mutant enzyme; details: 1 µM compound; for inhibition at 1 µM: read-out: Reverse Transciptase Assay % inhibition (1 µM) Y181C
T2 construct: Utilization of mutant RT eraymes (Y181C and Y181L, prepared by site-directed mutagenesis); made in house
From the text: as §1
The 2X concentrated stock reaction mixture is aliquoted and stored at -20°C. The mixture is stable and thawed for use in each assay. This enzyme assay has been adapted to a 96 well microtiter plate system, and has been previously described (6). Tris buffer (50 mM, pH 7.4), vehicle (solvent diluted to match the compound dilution), or compounds in vehicle are dispensed into 96-well microtiter plates (10µL/well; 3 wells/ compound). The HIV-1 RT enzyme is thawed, diluted in 50mM Tris pH 7.4 so that fifteen µL of diluted enzyme contain 0.001 Unit (one unit is that amount of enzyme to transform 1 micromole of substrate per minute at 25°C), and fifteen µL are dispensed per well. Twenty µL of 0.12-0.5M EDTA are added to the first three wells of the microtiter plate. EDTA chelates the Mg^++ present and prevents reverse transcription. This group serves as background polymerization which is subtracted from all other groups. Twenty-five ul of the 2X reaction mixture are added to all wells and the assay is allowed to incubate at room temperature for 60 minutes. The assay is terminated by precipitating the DNA in each well with 50µL of 10% trichloracetic acid (TCA) (10% w/v) in sodium pyrophosphate (1% w/v). The microtiter plate is incubated for 15 minutes at 4°C and the precipitate is fixed onto #30 glass fiber paper (Schleicher & Schuell) using a Skatron semi-automatic harvester. The filters are then washed with additional TCA (5%) containing sodium pyrophosphate (1%), rinsed with aqueous ethanol (70%), dried, and transferred to scintillation vials (6). Each vial receives 2 mL of scintillation cocktail and is counted in a Beckman beta counter. The calculation for percent inhibition is as follows: % inhibition =(CPM Mean Test Value - CPM Mean Control Value X100)/(CPM Mean Control Value) [formula]

HIV-1 RT Y188L = biological target: T3, HIV-1 RT Y188L (Human immunodeficiency virus type 1 group M subtype B, UniProt P03367, Y787L); assay: Reverse Transcriptase (RT) Assay, Y188L mutant enzyme; details: 1 µM compound
T3 construct: effective against the reverse transcriptase of many mutant viruses; made in house

Row | Molecule | Reverse Transciptase Assay % inhibition (1 µM) WT [1] [%] | Reverse Transciptase Assay % inhibition (1 µM) Y181C (HIV-1 RT Y181C) [%] | Reverse Transciptase Assay % inhibition (1 µM) Y188L (HIV-1 RT Y188L) [%] | inhibition at 1 µM [1] [%] | inhibition at 1 µM (HIV-1 RT Y181C) [%]
1 | 2-(1-Carbamylpyrazol-3-yl)-5,11-dihydro-11-ethyl-5-methyl-6H-dipyrido[3,2-b:2',3'-e][1,4]-diazepin-6-one [Example 7] | 94 | 84 | 52 | – | –
2 | CCN1c2ncccc2C(=O)N(C)c2ccc(-c3cnn(C)c3)nc21 [Example 3, 5,11-Dihydro-11-ethyl-5-methyl-2-(1-methylpyrazol-4-yl)-6H-dipyrido[3,2-b:2',3'-e][1,4]-diazepin-6-one] | – | – | 24 | 63 | 36
3 | CCN1c2ncccc2C(=O)N(C)c2ccc(-c3cnn(C(C)=O)c3)nc21 [Example 8, 2-(1-Acetylpyrazol-4-yl)-5,11-dihydro-11-ethyl-5-methyl-6H-dipyrido[3,2-b:2',3'-e][1,4] diazepin-6-one] | – | – | 80 | 96 | 80
4 | CCN1c2ncccc2C(=O)N(C)c2ccc(-c3cc[nH]n3)nc21 [Example 9, 5,11-Dihydro-11-ethyl-5-methyl-2-(3-pyrazolyl)-6H-dipyrido[3,2-b:2',3'-e][1,4]diazepin-6-one] | – | – | 20 | 67 | 67
5 | CCN1c2ncccc2C(=O)N(C)c2ccc(-c3c[nH]nc3C)nc21 [Example 10, 5,11-Dihydro-11-ethyl-5-methyl-2-(3-methylpyrazol-4-yl)-6H-dipyrido[3,2-b:2',3'-e][1,4]-diazepin-6-one] | – | – | 66 | 94 | 73
6 | CCN1c2ncccc2C(=O)N(C)c2ccc(-c3cccn3C)nc21 [Example 11, 5,11-Dihydro-11-ethyl-5-methyl-2-(1-methylpyrrol-2-yl)-6H-dipyrido[3,2-b:2',3'-e][1,4]-diazepin-6-one] | – | – | – | 81 | –
7 | CCN1c2ncccc2C(=O)N(C)c2ccc(-c3cccn3C(C)=O)nc21 [Example 14, 2-(1-Acetylpyrrol-2-yl)-5,11-dihydro-11-ethyl-5-methyl-6H-dipyrido[3,2-b:2',3'-e][1,4]-diazepin-6-one] | – | – | 23 | 74 | 51
8 | CCN1c2ncccc2C(=O)N(C)c2ccc(-c3cc[nH]c3C(C)=O)nc21 [Example 15, 2-(2-Acetylpyrrol-3-yl)-5,11-dihydro-11-ethyl-5-methyl-6H-dipyrido[3,2-b:2',3'-e][1,4]-diazepin-6-one] | – | – | 10 | 52 | 59
9 | CCOC(=O)c1cc(-c2ccc3c(n2)N(CC)c2ncccc2C(=O)N3C)c[nH]1 [Example 16, 5,11-Dihydro-2-[2-(ethoxycarbonyl)pyrrol-4-yl]-11-ethyl-5-methyl-6H-dipyrido-[3,2-b:2',3'-e][1,4]diazepin-6-one] | – | – | – | 83 | 74
10 | CCN1c2ncccc2C(=O)N(C)c2ccc(-c3c[nH]c(C(C)=O)c3)nc21 [Example 17, 2-(2-Acetylpyrrol-4-yl)-5,11-dihydro-11-ethyl-5-methyl-6H-dipyrido[3,2-b:2',3'-e][1,4]-diazepin-6-one] | – | – | 27 | 78 | 62
11 | CCN1c2ncccc2C(=O)N(C)c2ccc(-c3cc[nH]c3C#N)nc21 [Example 18, 2-(2-Cyanopyrrol-3-yl)-5,11-dihydro-11-ethyl-5-methyl-6H-dipyrido[3,2-b:2',3'-e][1,4]-diazepin-6-one] | – | – | 57 | 87 | 82
12 | CCN1c2ncccc2C(=O)N(C)c2ccc(-c3c[nH]c(C#N)c3)nc21 [Example 19, 2-(2-Cyanopyrrol-4-yl)-5,11-dihydro-11-ethyl-5-methyl-6H-dipyrido[3,2-b:2',3'-e][1,4]-diazepin-6-one] | – | – | 55 | 91 | 75
13 | CCN1c2ncccc2C(=O)N(C)c2ccc(-c3ccn(C)c3)nc21 [Example 20, 5,11-Dihydro-11-ethyl-5-methyl-2-(1-methylpyrrol-3-yl)-6H-dipyrido[3,2-b:2',3'-e][1,4]-diazepin-6-one] | – | – | 26 | 65 | 36
14 | CCN1c2ncccc2C(=O)N(C)c2ccc(-c3c[nH]c(C(=O)O)c3)nc21 [Example 21, 2-(2-Carboxypyrrol-4-yl)-5,11-dihydro-11-ethyl-5-methyl-6H-dipyrido[3,2-b:2',3'-e][1,4]-diazepin-6-one] | – | – | 46 | 33 | 28
15 | CCN1c2ncccc2C(=O)N(C)c2ccc(-c3c[nH]c(C(N)=O)c3)nc21 [Example 22, 2-(2-Carbamylpyrrol-4-yl)-5,11-dihydro-11-ethyl-5-methyl-6H-dipyrido[3,2-b:2',3'-e][1,4]-diazepin-6-one] | – | – | 30 | 76 | 72
16 | CCN1C(=O)c2cccnc2N(C)c2nc(-c3ccc[nH]3)ccc21 [Example 23, 5,11-Dihydro-5-ethyl-11-methyl-2-(2-pyrrolyl)-6H-dipyrido[3,2-b:2',3'-e][1,4]diazepin-6-one] | – | – | 47 | 58 | 37
